Tests used:
human preadipocytes = assay: Lipid production in preadipocytes, Oil Red O staining; format: cell-based; conditions: 1.1 uM, about 48 hours, FIG. 2 and FIG. 3
From the text: FIG. 2 is a photograph of human preadipocytes treated with troglitazone and stained for lipids. FIG. 3 is a photograph of human preadipocytes treated with troglitazone and stained for lipids.

keratinocytes = assay: Lipid production in keratinocytes, Oil Red O staining; format: cell-based; conditions: 2.5 uM, 48 hours, compared to DMSO control, FIG. 1
From the text: FIG. 1 is a photograph of keratinocytes treated with troglitazone and stained for lipids.

Cc1c(C)c2c(c(C)c1O)CCC(C)(COc1ccc(CC3SC(=O)NC3=O)cc1)O2 (racemic) [troglitazone, (RS)-5-(4-[(6-hydroxy-2,5,7,8-tetramethylchroman-2-yl)methoxy]benzyl)thiazolidine-2,4-dione]
lipid production (quantity and size of lipid droplets stained with Oil Red O) (human preadipocytes): increase in the lipid production
lipid production in the cells (lipid droplets stained with Oil Red O) (keratinocytes): increase in lipid production

Reference: patent US20110150798A1, “COMPOSITIONS AND METHODS FOR INCREASING CELLULAR FAR AND BLEACHING SKIN” (priority 2009, published 2011)
